What all share (assay): normalised response (% of control), CellTiter-Glo; higher = more viable cells (100 = DMSO, 0 = benzethonium chloride kill control)
What all share (settings): incubation time: 72 h

The subject of assay [1] is CAL-51. As to the method: (§1)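 DSRT, 72 h incubation, CellTox Green / CellTiter-Glo readout. Signal is normalised to DMSO and benzethonium chloride controls. Value is the normalised response at the highest dose.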
Assay [2] relates to CAL-120. The procedure: as §1
In assay [3] the test system is MDA-MB-453. As to the method:
as §1

Assay [4] deals with SK-BR-3. As to the method:
as §1

Assay [5] deals with MDA-MB-231. The procedure: as §1
For assay [6], the system named is HCC1143. As to the method:
as §1

In assay [7] the test system is HCC1599. The procedure:
as §1

Assay [8] deals with MCF-10A. As to the method: as §1
In assay [9] the test system is CAL-148. The procedure:
as §1

Assay [10] has as its system MFM-223. As to the method:
as §1

In assay [11] the test system is BT-549. The procedure: as §1
For assay [12], the system named is MDA-MB-468. The procedure:
as §1

Assay [13] has as its system HCC1937. As to the method:
as §1

Assay [14] concerns Hs578T. As to the method: as §1
For assay [15], the system named is DU-4475. The procedure:
as §1

As to `CN(C)C/C=C/C(=O)Nc1cc2c(Nc3ccc(F)c(Cl)c3)ncnc2cc1O[C@H]1CCOC1` [Afatinib] (1000 nM), the normalised response in assay [1] came to 96.4%; in assay [2], 93.5%; in assay [3], 63.3%; in assay [4] it was 24.8%; in assay [5] it was 83.4%; in assay [6], 97.2%. The normalised response came to 108% in assay [7]; 35.1% in [8]; 78.6% in [9]; 93% in assay [10]; 89.1% in [11]; 66.8% in assay [12]. Further, the normalised response in assay [13] worked out at 89.8%; in assay [14], 94.5%; in assay [15], 100%.

Take `CN1CC[C@H](c2c(O)cc(O)c3c(=O)cc(-c4ccccc4Cl)oc23)[C@H](O)C1` [Alvocidib] (10000 nM): the normalised response was 15.7% in [1]; 37% in [2]; 18.1% in assay [3]; 1.32% in [4]; 3.28% in [5]; 17% in assay [6]. In addition, the normalised response in [7] was 13.9%; in assay [8] it was 7.83%; in [9], 58.3%; in assay [10], 10%; in [11], 5.51%; in assay [12] it was 5.01%. For the same molecule, the normalised response is 26.2% in [13], 7.68% in assay [14] and 8.12% in [15].

Regarding `Nc1nc(Cl)nc2c1ncn2[C@H]1C[C@H](O)[C@@H](CO)O1` [Cladribine] (1000 nM), the normalised response was determined as 124% in assay [1]; 79% in [2]; 126% in assay [3]; 74.1% in assay [4]; 88.4% in [5]; 92% in assay [6]. Moreover, the normalised response in assay [7] amounted to 61.2%; in [8], 102%; in assay [9], 93.6%; in assay [10] it was 109%; in assay [11] it was 39.6%; in [12], 87.9%. Besides, the normalised response in assay [13] is 82.8%; in [14], 102%; in assay [15], 92.9%.

With `Nc1ccn([C@@H]2O[C@H](CO)[C@@H](O)[C@@H]2O)c(=O)n1` [Cytarabine] (10000 nM), the normalised response in [1] stood at 25.4%; in assay [2] it was 88.1%; in assay [3], 76.4%; in [4] it was 43%; in assay [5], 79.6%; in assay [6], 55.9%. In addition, the normalised response in assay [7] was found to be 69.8%; in [8], 71.3%; in assay [9], 40.2%; in assay [10], 106%; in assay [11] it was 56.6%; in [12], 62.9%. Further, the normalised response was 76.5% in [13], 77.9% in assay [14] and 69.6% in assay [15].

Turning to `Cc1c2oc3c(C)ccc(C(=O)N[C@@H]4C(=O)N[C@H](C(C)C)C(=O)N5CCC[C@H]5C(=O)N(C)CC(=O)N(C)[C@@H](C(C)C)C(=O)O[C@@H]4C)c3nc-2c(C(=O)N[C@@H]2C(=O)N[C@H](C(C)C)C(=O)N3CCC[C@H]3C(=O)N(C)CC(=O)N(C)[C@@H](C(C)C)C(=O)O[C@@H]2C)c(N)c1=O` [Dactinomycin] (1000 nM), the normalised response in [1] is 9.31%; in assay [2], 33.1%; in [3], 16.7%; in assay [4], 1.39%; in assay [5], 2.02%; in assay [6], 11.3%. The normalised response in [7] is 7.78%; in assay [8], 2.65%; in assay [9], 52%; in assay [10] it was 11.9%; in [11], 1.88%; in [12], 4.19%. Further, the figures for the normalised response in [13], in [14] and in assay [15] were 25.2%, 3.61% and 3.22%, respectively.

Regarding `COc1cccc2c1C(=O)c1c(O)c3c(c(O)c1C2=O)C[C@@](O)(C(=O)CO)C[C@@H]3O[C@H]1C[C@H](N)[C@H](O)[C@H](C)O1` [Doxorubicin] (1000 nM), the normalised response in assay [1] amounted to 23.7%; in [2], 43.4%; in assay [3], 20.7%; in [4] it was 8.83%; in assay [5] it was 29%; in assay [6], 46.2%. Further, the normalised response in assay [7] came out at 33.2%; in [8], 44%; in [9] it was 1.22%; in assay [10], 72.6%; in [11] it was 14.9%; in [12] it was 7.26%. Besides, the values for the normalised response in [13], in assay [14] and in assay [15] were 51.4%, 45.6% and 0.14%, respectively.

For `Cc1ccc(F)c(NC(=O)Nc2ccc(-c3cccc4[nH]nc(N)c34)cc2)c1` [Linifanib] (1000 nM), the normalised response was 91.6% in assay [1]; 109% in [2]; 110% in [3]; 108% in assay [4]; 109% in assay [5]; 108% in [6]. The normalised response in assay [7] turned out to be 105%; in assay [8], 106%; in assay [9], 118%; in assay [10] it was 108%; in assay [11] it was 103%; in assay [12] it was 108%. Further, the normalised response in [13] amounted to 103%; in assay [14] it was 101%; in assay [15], 106%.

Consider `S=c1[nH]cnc2nc[nH]c12` [Mercaptopurine] (10000 nM), for which the normalised response in [1] is 80.5%; in assay [2] it was 27.3%; in [3] it was 102%; in [4], 85.8%; in [5], 40.7%; in assay [6], 101%. Moreover, the normalised response in assay [7] came to 27.5%; in assay [8], 95.3%; in assay [9], 85.5%; in [10], 85.5%; in assay [11], 94.8%; in assay [12] it was 96.8%. Further, the normalised response amounted to 31.8% in [13], 47.3% in assay [14] and 56.5% in assay [15].

For `Clc1ccc(C(c2ccccc2Cl)C(Cl)Cl)cc1` (stereo not given) [Mitotane] (10000 nM), the normalised response in [1] amounted to 64.2%; in assay [2] it was 99.2%; in assay [3], 94.9%; in [4], 98.7%; in assay [5], 94.9%; in assay [6] it was 98.7%. Also, the normalised response in [7] came to 113%; in assay [8], 102%; in assay [9] it was 99.1%; in assay [10], 97%; in assay [11], 95.6%; in assay [12], 96.2%. Also, the normalised response stood at 94.9% in assay [13], 102% in assay [14] and 95.9% in assay [15].

Values taken from the supplement of paper PMC4862054.
